Assay [1] has as its system human D2 receptor (short isoform) relative to human D4 receptor (D4.2 sub-type). In words: D4 selectivity: D2 versus D4 receptor binding (displacement of 3H-spiperone). The note with it: D2/D4 ratio, D2 in GH4 C1 cells, D4 in HEK 298 cells. On the procedure:
The potency of the test compound to reduce ^3 H-spiperone binding directly correlated to its binding affinity for the receptor. […] When used in the assay, cells were thawed on ice for 20 minutes and then 10 mL of incubation buffer (50 mM Tris, 1 mM EDTA, 4 mM MgCI2, 5 mM KCI, 1.5 mM CaCI2, 120 mM NaCI, pH7.4) was added. […] Concentration of receptor protein was determined using the Pierce BCA assay. […] After 16 hours, fresh media was added to allow the cells to recover for 24 hours. The cells were harvested using versene and then centrifuged in a Sorval centrifuge for 10 minutes, at 5000 rpm (GS3 rotor). Pellets were quickly frozen in liquid nitrogen and stored at -80° C. until used in the binding assays. When used in the assay, cells were thawed on ice for 20 minutes. […] The receptor protein concentration was determined using the Pierce BCA assay. […] The tubes were vortexed and incubated at room temperature for 90 minutes. The binding reaction was stopped by filtering using a Brandell Cell Harvester. The samples were filtered under vacuum over glass fibre filters (Whatman GF/B) presoaked for 2 hours in 0.3% polyethylenimine (PEI) in 50 mM Tris buffer (pH7.4). The filters were then washed 3 times with 5 mL ice cold 50 mM Tris buffer (pH7.4). Individual filter disks were put in scintillation vials (Biovials, Bechman). […] The tubes were vortexed and incubated at room temperature for 90 minutes at which time the binding reaction was stopped by filtering. The filters were washed and counted using the same procedure as in the total binding assay described above to give the non-specific binding value (NSB). […] The tubes were vortexed and incubated at room temperature for 90 minutes at which time the binding reaction was stopped by filtering. The filters were washed and counted using the same procedure as in the total binding assay described above to give the displacement binding value (BD). […] IC50 was determined from an inhibition response curve, logit-log plot of %B/B0 vs concentration of test compound.
(In general: Displacement assays read how much labelled ligand stays bound in the presence of the test substance.)

Assay [2] deals with T1, human D4 receptor (D4.2 sub-type) (Homo sapiens, UniProt P21917, DEL265-296).
T1 construct: expressed in transfected cells; host or cells: HEK 298 (human embryonic kidney); homogenate used
T1 sequence (P21917 with tags, fused parts or gaps DEL265-296): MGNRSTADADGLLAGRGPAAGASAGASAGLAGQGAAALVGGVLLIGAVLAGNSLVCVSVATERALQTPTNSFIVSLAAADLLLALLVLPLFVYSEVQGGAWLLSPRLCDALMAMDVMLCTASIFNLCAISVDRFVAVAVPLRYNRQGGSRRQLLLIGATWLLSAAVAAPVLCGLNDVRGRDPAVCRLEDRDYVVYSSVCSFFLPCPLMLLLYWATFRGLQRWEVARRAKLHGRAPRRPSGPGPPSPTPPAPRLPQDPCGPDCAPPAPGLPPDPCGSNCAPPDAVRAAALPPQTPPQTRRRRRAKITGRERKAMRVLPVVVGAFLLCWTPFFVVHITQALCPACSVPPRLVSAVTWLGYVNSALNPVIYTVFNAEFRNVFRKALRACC
The experiment in a line: D4 receptor-binding affinity (displacement of 3H-spiperone). To be noted: 3H-spiperone 0.25 nM, HEK 298 cell membranes, Cheng and Prustoff transformation. On the procedure:
The potency of the test compound to reduce ^3 H-spiperone binding directly correlated to its binding affinity for the receptor.
The cells were then centrifuged in a Sorval centrifuge for 10 minutes, 5000 rpm (GS3 rotor) and the pellets quickly frozen in liquid nitrogen and stored at -80° C. until used in binding assay.
Concentration of receptor protein was determined using the Pierce BCA assay.
The tubes were vortexed and incubated at room temperature for 90 minutes. The binding reaction was stopped by filtering using a Brandell Cell Harvester. The samples were filtered under vacuum over glass fibre filters (Whatman GF/B) presoaked for 2 hours in 0.3% polyethylenimine (PEI) in 50 mM Tris buffer (pH7.4). The filters were then washed 3 times with 5 mL ice cold 50 mM Tris buffer (pH7.4). Individual filter disks were put in scintillation vials (Biovials, Bechman).
The tubes were vortexed and incubated at room temperature for 90 minutes at which time the binding reaction was stopped by filtering. The filters were washed and counted using the same procedure as in the total binding assay described above to give the non-specific binding value (NSB).
The incubation was started by the addition to 12×75 mm polypropylene tubes 500 μl (50 μg protein) membrane homogenate to a solution of 400 μl incubation buffer, 100 μl (0.25 final conc.) ^3 H-spiperone (90Ci/mmol, Amersham, diluted in borosilicate glass vial to) and […] of test compound that was prepared from 1 mM stock dissolved in DMSO and stored at -20° C. in polypropylene cryogenic storage vials until dilution in incubation buffer in borosilicate glass vials. The tubes were vortexed and incubated at room temperature for 90 minutes at which time the binding reaction was stopped by filtering. The filters were washed and counted using the same procedure as in the total binding assay described above to give the displacement binding value (BD).
IC50 was determined from an inhibition response curve, logit-log plot of %B/B0 vs concentration of test compound.
Ki was calculated by the Cheng and Prustoff transformation: […]
where [L] is the concentration of ^3 H-spiperone used in the assay and KD is the dissociation constant of ^3 H-spiperone determined independently under the same binding conditions.

The subject of assay [3] is D4 receptor relative to the D2 receptor. The note with it: marketed products, background section; cited from earlier work.
The target of a further assay is D4 receptor. To be noted: marketed products, background section; read-out: D4 affinity, Ki value; cited from earlier work.

The values that follow come from patent US5814628A, “Benzyl-substituted compounds having dopamine receptor affinity” (Allelix Biopharmaceuticals Inc., priority 1996, dated 1998).

Usually Ki stands for a dissociation constant, usually derived from enzyme kinetics or from competition with a known ligand. On to `Clc1ccc2c(c1)N=C(N1CCN(Cc3ccccc3)CC1)c1ccccc1O2` [8-Chloro-11-(4-benzyl-1-piperazinyl)-dibenz[b,f][1,4]oxazepine], for which the D2/D4 in assay [1] is given as 31.7. Further, the Ki in assay [2] came out at 19 nM.

As to `N#Cc1ccccc1CN1CCN(C2=Nc3ccccc3Oc3ccccc32)CC1` [11-[4-(2-cyanobenzyl)-1-piperazinyl]dibenz[b,f][1,4]oxazepine], the D2/D4 in assay [1] worked out at 16.1. Further, the Ki in assay [2] worked out at 519 nM.

Consider `N#Cc1cccc(CN2CCN(C3=Nc4ccccc4Oc4ccccc43)CC2)c1` [11-[4-(3-cyanobenzyl)-1-piperazinyl]dibenz[b,f][1,4]oxazepine], for which the D2/D4 in assay [1] came out at 21.7. In assay [2], this compound had a Ki of 134 nM.

`N#Cc1ccc(CN2CCN(C3=Nc4ccccc4Oc4ccccc43)CC2)cc1` [11-[4-(4-cyanobenzyl)-1-piperazinyl]dibenz[b,f][1,4]oxazepine]: the D2/D4 in assay [1] turned out to be 90.1. In assay [2], this compound yielded a Ki of 108 nM.

As for `CN1CCN(C2=Nc3cc(Cl)ccc3Oc3ccccc32)CC1` [isoloxapine], the “preference for binding the D4 receptor relative to the D2 receptor” value in assay [3] is “about 10 fold”. Moreover, the Ki at D4 receptor is ~20 nM.
